{"source": "paper PMC12910498", "about": "(ACS pharmacology & translational science, 2026)", "key": {"D5": {"target": "T1, D5 (Homo sapiens, UniProt P21918)", "T1 construct": "Psychoactive Drug Screening Program (PDSP)", "T1 sequence (P21918 whole entry)": "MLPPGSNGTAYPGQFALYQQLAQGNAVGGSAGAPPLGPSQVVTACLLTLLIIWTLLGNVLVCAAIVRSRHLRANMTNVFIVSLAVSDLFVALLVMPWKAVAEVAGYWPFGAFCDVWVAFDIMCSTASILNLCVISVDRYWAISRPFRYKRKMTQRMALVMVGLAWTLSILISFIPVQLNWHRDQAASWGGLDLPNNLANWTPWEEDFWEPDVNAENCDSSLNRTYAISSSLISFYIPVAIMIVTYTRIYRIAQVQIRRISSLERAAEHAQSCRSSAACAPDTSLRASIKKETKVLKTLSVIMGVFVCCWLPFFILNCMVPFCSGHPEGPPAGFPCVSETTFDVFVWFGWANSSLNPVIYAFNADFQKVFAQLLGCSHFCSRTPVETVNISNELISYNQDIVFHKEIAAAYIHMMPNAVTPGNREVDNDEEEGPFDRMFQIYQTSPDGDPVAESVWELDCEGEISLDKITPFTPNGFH", "assay": "PDSP primary screen, D5", "assay_type": "binding", "conditions": "10 µM compound", "source_text": "Receptor Primary Secondary Primary Secondary Primary Secondary Primary Secondary screen assay screen assay screen assay screen assay […]\ninhibition in primary assessment."}, "human D2LR": {"target": "human D2LR (Homo sapiens, UniProt P14416)", "sequence (P14416 whole entry)": "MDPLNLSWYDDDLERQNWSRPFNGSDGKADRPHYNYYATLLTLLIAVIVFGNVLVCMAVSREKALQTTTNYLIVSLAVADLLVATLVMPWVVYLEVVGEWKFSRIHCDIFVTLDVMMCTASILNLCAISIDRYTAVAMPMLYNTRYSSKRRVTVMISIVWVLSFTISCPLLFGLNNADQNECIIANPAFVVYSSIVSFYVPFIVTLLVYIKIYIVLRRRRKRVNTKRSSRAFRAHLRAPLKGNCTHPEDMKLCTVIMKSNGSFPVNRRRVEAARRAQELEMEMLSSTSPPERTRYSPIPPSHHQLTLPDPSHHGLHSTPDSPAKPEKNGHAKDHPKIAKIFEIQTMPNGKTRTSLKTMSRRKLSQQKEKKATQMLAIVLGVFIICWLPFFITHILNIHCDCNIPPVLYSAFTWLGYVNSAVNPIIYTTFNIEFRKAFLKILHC", "assay": "biochemical"}, "human D3R": {"target": "human D3R (Homo sapiens, UniProt P35462)", "sequence (P35462 whole entry)": "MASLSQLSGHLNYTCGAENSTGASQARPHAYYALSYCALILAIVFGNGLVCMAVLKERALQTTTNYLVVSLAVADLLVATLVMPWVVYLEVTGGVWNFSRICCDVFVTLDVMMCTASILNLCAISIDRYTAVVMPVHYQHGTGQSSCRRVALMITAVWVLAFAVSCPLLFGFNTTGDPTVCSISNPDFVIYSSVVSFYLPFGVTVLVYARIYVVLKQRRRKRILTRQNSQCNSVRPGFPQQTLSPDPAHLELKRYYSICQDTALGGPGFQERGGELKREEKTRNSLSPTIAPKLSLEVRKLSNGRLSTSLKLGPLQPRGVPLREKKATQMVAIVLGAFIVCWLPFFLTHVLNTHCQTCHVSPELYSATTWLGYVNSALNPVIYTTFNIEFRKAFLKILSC", "assay": "biochemical"}, "human D4R [1]": {"target": "T2, human D4R (Homo sapiens, UniProt P21917)", "T2 sequence (P21917 1-419)": "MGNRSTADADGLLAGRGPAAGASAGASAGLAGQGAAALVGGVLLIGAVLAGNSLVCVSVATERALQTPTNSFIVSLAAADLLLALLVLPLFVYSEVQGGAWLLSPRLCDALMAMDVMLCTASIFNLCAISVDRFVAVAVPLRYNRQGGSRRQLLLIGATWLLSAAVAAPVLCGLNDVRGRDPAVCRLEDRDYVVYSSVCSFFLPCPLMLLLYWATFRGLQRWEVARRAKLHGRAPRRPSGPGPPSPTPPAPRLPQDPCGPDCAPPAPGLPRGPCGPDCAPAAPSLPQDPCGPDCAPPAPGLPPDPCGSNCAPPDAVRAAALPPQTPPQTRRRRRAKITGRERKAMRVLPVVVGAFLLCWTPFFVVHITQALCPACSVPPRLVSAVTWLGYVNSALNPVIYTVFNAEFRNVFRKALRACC", "assay": "[3H]N-methylspiperone radioligand competition binding, hD4R membranes"}, "human D4R [2]": {"target": "T2, human D4R", "protocol": "We investigated the effects of the triazole linker on D4R-mediated inhibition of forskolin-stimulated cAMP accumulation. […] All compounds were tested in both agonist and antagonist modes using CHO-K1 cells stably expressing the human D4R.\nD4R-mediated inhibition of forskolin-stimulated cAMP production was assayed using the PerkinElmer LANCE Ultra cAMP assay kit (PerkinElmer, Inc., Waltham, MA). CHO-K1 cells stably expressing the human D4R were maintained in Ham’s F12 supplemented with 10% fetal bovine serum, 100 U/mL penicillin, 100 μg/mL streptomycin, 800 μg/mL G418, and 300 μg/mL hygromycin at 37 °C, 5% CO2, and 90% humidity. Cells were seeded in Hank’s balanced salt solution (with CaCl2 and MgCl2) with 5 mM HEPES buffer and 0.2 μM sodium metabisulfite at a density of 5000 cells/well in 384-well white plates. Compounds and forskolin were made in the same buffer. […] Eu-cAMP tracer and ULight-anti-cAMP solutions were added as directed by the manufacturer and cells were incubated for 2 h in the dark at room temperature, after which a time-resolved fluorescence resonance energy transfer (TR-FRET) signal was measured using a BMG Labtech PHERAstar Fs (BMG Labtech USA, Cary, NC). […] The data from each experiment was fit, as described above, with the Emax, Ant. %, EC50, and IC50 values extracted from the nonlinear regression. These values were then averaged together across experiments using descriptive statistics in Prism and reported as means ± SEM."}}, "data": [{"smiles": "Cc1cccc(-n2cc(CN3CCN(c4cccc5ccccc45)CC3)nn2)c1", "note": "[Compound 18, 1-(Naphthalen-1-yl)-4-((1-(m-tolyl)-1H-1,2,3-triazol-4-yl)methyl)piperazine]", "values": [{"measurement": "inhibition at 10 µM", "setting": "D5", "value": 25.7, "unit": "%"}, {"measurement": "Ki", "setting": "human D2LR", "value": "6540 ± 5370", "unit": "nM"}, {"measurement": "Ki", "setting": "human D3R", "value": 10800, "unit": "nM"}, {"measurement": "Ki", "setting": "human D4R [1]", "value": "4.33 ± 1.02", "unit": "nM"}, {"measurement": "Selectivity D2R/D4R", "setting": "human D4R [1]; ratio of Ki values", "value": 1510}, {"measurement": "Selectivity D3R/D4R", "setting": "human D4R [1]; ratio of Ki values", "value": 2504}, {"measurement": "EC50", "setting": "human D4R [2]", "value": "2140 ± 1070", "unit": "nM"}, {"measurement": "IC50", "setting": "human D4R [2]", "value": "904 ± 102", "unit": "nM"}, {"measurement": "D4R Ant. (%)", "setting": "human D4R [2]; cAMP, antagonist mode, 10 μM forskolin and 10 nM dopamine, normalized to spiperone", "value": "72 ± 5", "unit": "%"}, {"measurement": "Emax", "setting": "human D4R [2]; read-out: D4R Emax (%)", "value": "24 ± 7", "unit": "%"}]}]}
